Paper PMC9729294 (Scientific Reports, 2022)

How the values were obtained:
[1] = system: red blood cell (RBC) membrane; experiment: Membrane stabilization (antihemolytic) activity, hypotonic solution-induced RBC lysis; format: cell-based, human
Method: Anti-inflammatory activities were evaluated through the antihemolytic membrane stabilization effect of the ligand and its metal complexes using a red blood cell (RBC) membrane stabilization method. Fresh whole blood samples were collected in anticoagulant tubes from a healthy volunteer who was not treated with any nonsteroidal anti-inflammatory drugs (NSAIDs) for 2 weeks before the experiment. Erythrocytes were extracted by centrifugation at 3000 rpm for 5 min. The anticoagulated cells were washed 3 times with 0.9% saline and centrifuged at 3000 rpm for 10 min. An RBC suspension (40% v/v) was prepared using isotonic saline phosphate buffer (0.15 M NaCl and 10 mM sodium phosphate buffer, pH 7.4). One milliliter of phosphate buffer (0.15 M, pH 7.4) was added to one mL of various concentrations of the tested compounds (0.05, 0.1, 0.2, 0.3, 0.4 and 0.5 mg/mL DMSO) and 2 mL sodium chloride solution (0.25%). In the control tube, one distilled water was used instead of the tested compounds. Different concentrations of nonsteroidal anti-inflammatory drug (diclofenac potassium) were used as standards. Then, 100 µL of RBC suspension was added to each tube and incubated at room temperature for 60 min. After incubation, the samples were centrifuged for 10 min at 3000 rpm. The absorbance of the supernatant was detected at 540 nm using an ELISA reader. The inhibition of hemolysis in the samples was evaluated according to the equation: %Inhibition \, of \, hemolysis=A \, control-A \, sample/A \, control×100.

Candida albicans = experiment: Antifungal disc diffusion, C. albicans; format: cell-based; settings: Nil = zero inhibition
Method: (§1) The ligand and its metal(II) complexes were evaluated for antimicrobial activity against two strains, gram-positive bacteria (Staphylococcus aureus and Staphylococcus faecalis), gram-negative bacteria (Escherichia coli and Pseudomonas aeruginosa) and pathogenic fungi (Candida albicans), using DMSO as a negative control. […] The antimicrobial activity of the tested samples was determined using a modified Kirby-Bauer disc diffusion method. All the synthesized compounds were dissolved to prepare a stock solution of 1 mg/mL using DMSO. Stock solution was aseptically transferred, and two-fold diluted to have solutions of different concentrations. The antibacterial and antifungal activities of test compounds were done by filter paper disc method[21] and the activities were determined by measuring the diameters of the inhibition zone (mm). Media with DMF was set up as a control. All cultures were routinely maintained on NA (nutrient agar) and incubated at 37 °C. The inoculums of bacteria were performed by growing the culture in NA broth at 37 °C for overnight. Approximately, 0.1 mL of diluted bacterial or fungal culture suspension was spread with the help of spreader on NA plates uniformly. Solutions of the tested compounds and reference drugs were prepared by dissolving 10 mg of the compound in 10 mL DMF. […]

Pseudomonas aeruginosa = experiment: Antimicrobial disc diffusion, P. aeruginosa; format: cell-based; settings: Nil = zero inhibition
Method: as §1

[2] = Reducing power assay (ferricyanide, absorbance at 700 nm); format: biochemical; settings: Standard = ascorbic acid
Method: The reducing power capacity of the investigated compounds was evaluated by the method of Oyaizu[18]. Then, 0.5 mL of different concentrations ([…], 0.1, 0.2, 0.3, 0.4 and 0.5 mg/mL in DMSO) was added to 0.5 mL of sodium phosphate buffer (0.2 M, pH 6.6) and 0.5 mL of 1% potassium ferricyanide. The samples were incubated at 50 °C for 20 min. Then, 0.5 mL trichloroacetic acid (10%) was added and centrifuged at 3000 rpm for 15 min. The supernatant (1.0 mL) was incubated with 1.0 mL H2O2 and 0.2 mL of 1% ferric chloride for 30 min. The absorbance of the samples was measured at 700 nm. Ascorbic acid was used as a standard. An increase in the absorbance value indicates a higher reducing power.

[3] = system: Acetylcholinesterase (AChE); experiment: AChE inhibition (Ellman method, brain homogenate); format: biochemical; settings: Standard = donepezil
Method: Acetylcholinesterase (AChE) activity was evaluated according to a previously reported method. Briefly, 10 μL of different concentrations of the tested compounds (test) or organic solvent (control) was added to 130 μL of phosphate buffer (pH 7.4, 0.1 M) and 20 μL of brain homogenate and then incubated at 37 °C for 45 min. Then, 5 μL of […] (75 mM) was added and incubated for 15 min at 37 °C. After incubation, […] of 0.32 mM DTNB was added. […] The percent inhibition of AChE was calculated as follows: %inhibition \, of \, […]=[A \, control--A \, sample/A \, control]×100.

Escherichia coli = experiment: Antimicrobial disc diffusion, E. coli; format: cell-based; settings: Nil = zero inhibition
Method: as §1

Staphylococcus aureus = experiment: Antimicrobial disc diffusion, S. aureus; format: cell-based; settings: Nil = zero inhibition
Method: as §1

[4] = Nitric oxide scavenging assay (sodium nitroprusside / Griess reagent); format: biochemical; settings: Standard = ascorbic acid
Method: The nitric oxide scavenging activity of the ligand and its complexes was evaluated following a reported procedure Padmaja, et al.[17]. […] The samples were added to 150 µL Griess reagent (1% sulfanilamide and 0.1% naphthyl ethylenediamine hydrochloride in 2.5% orthophosphoric acid) and incubated at 25 °C for 30 min. The absorbance (A) was read at 540 nm using an ELISA reader. The experiment was repeated in triplicate, and ascorbic acid was used as a standard. The scavenged activity of NO was calculated using the equation %inhibition=[(A \, control-A \, sample)/A \, control]×100.

Staphylococcus faecalis = experiment: Antimicrobial disc diffusion, S. faecalis; format: cell-based; settings: Nil = zero inhibition
Method: as §1

[5] = DPPH radical scavenging assay; format: biochemical; settings: for DPPH radical scavenging activity (% inhibition): Standard = ascorbic acid (vitamin C)
Method: The oxidative scavenging activity of the ligand and its complexes was evaluated by DPPH (4 mg/100 ml methanol) Zengin, et al.[16]. Briefly, equal volumes of different concentrations ([…], 0.1, 0.2, 0.3, 0.4 and 0.5 mg/mL DMSO) of the tested components were added to DPPH reagent using ascorbic acid as a reference. All the investigated tests were shaken and incubated at room temperature in the dark for 30 min. The decrease in DPPH radicals was evaluated at 490 nm using an ELISA reader. Each test was performed in triplicate. The radical scavenging power was estimated as a percentage of DPPH inhibition using the equation: %inhibition=[(A \, control-A \, sample)/A \, control]×100.

[6] = Homo sapiens, Erythrocyte, read-out: Inhibition of RBC hemolysis (membrane stabilization)

Question: With O=C([O-])Cc1ccccc1Nc1c(Cl)cccc1Cl.[K+] [diclofenac potassium, reference compound] as the compound, how does the “Antihemolytic activity toward RBCs IC50” value ([1]; hypotonic solution-induced lysis) read?
Answer: 120 mg/L

Question: Which Inhibition zone diameter (Candida albicans) does the source give for C[C@@H]1[C@H](O)[C@@H](C)/C=C/C=C/C=C/C=C/C=C/C=C/C=C/[C@H](O[C@@H]2O[C@H](C)[C@@H](O)[C@H](N)[C@@H]2O)C[C@@H]2O[C@](O)(C[C@@H](O)C[C@@H](O)[C@H](O)CC[C@@H](O)C[C@@H](O)CC(=O)O[C@H]1C)C[C@H](O)[C@H]2C(=O)O [Amphotericin B, reference compound] here?
Answer: 20 mm/mg sample

Question: With Oc1ccc2ccccc2c1/C=N/c1ccc(Cc2ccc(/N=C/c3c(O)ccc4ccccc34)cc2)cc1 [Ligand] as the compound, how does the Inhibition zone diameter (Candida albicans) read?
Answer: Nil

Question: What about the Inhibition zone diameter (Pseudomonas aeruginosa) of the same compound?
Answer: Nil

Question: And the “Reducing power (absorbance at 700 nm)” value ([2]; 0.05 mg/mL)?
Answer: 0.10 ± 0.01

Question: What about the “Reducing power (absorbance at 700 nm)” value ([2]; 0.1 mg/mL) of the same compound?
Answer: 0.13 ± 0.001

Question: And the “Reducing power (absorbance at 700 nm)” value ([2]; 0.2 mg/mL)?
Answer: 0.17 ± 0.01

Question: What about the “Reducing power (absorbance at 700 nm)” value ([2]; 0.3 mg/mL) of the same compound?
Answer: 0.20 ± 0.01

Question: What about the “Reducing power (absorbance at 700 nm)” value ([2]; 0.4 mg/mL) of the same compound?
Answer: 0.23 ± 0.001

Question: What about the “Reducing power (absorbance at 700 nm)” value ([2]; 0.5 mg/mL) of the same compound?
Answer: 0.29 ± 0.01

Question: And the AChE percent inhibition ([3]; 0.05 mg/mL)?
Answer: 17.70 ± 1.04%

Question: What about the AChE percent inhibition ([3]; 0.1 mg/mL) of the same compound?
Answer: 21.83 ± 1.5%

Question: And the AChE percent inhibition ([3]; 0.2 mg/mL)?
Answer: 27.27 ± 1.16%

Question: What about the AChE percent inhibition ([3]; 0.3 mg/mL) of the same compound?
Answer: 32.90 ± 1.61%

Question: And the AChE percent inhibition ([3]; 0.4 mg/mL)?
Answer: 38.57 ± 1.0%

Question: What about the AChE percent inhibition ([3]; 0.5 mg/mL) of the same compound?
Answer: 41.97 ± 1.08%

Question: And the Inhibition zone diameter (Escherichia coli)?
Answer: Nil

Question: What about the Inhibition zone diameter (Staphylococcus aureus) of the same compound?
Answer: Nil

Question: And the “NO scavenging (% inhibition)” value ([4]; 0.05 mg/mL)?
Answer: 15.8 ± 0.78%

Question: What about the “NO scavenging (% inhibition)” value ([4]; 0.1 mg/mL) of the same compound?
Answer: 21.37 ± 1.38%

Question: And the “NO scavenging (% inhibition)” value ([4]; 0.2 mg/mL)?
Answer: 27.13 ± 1.58%

Question: What about the “NO scavenging (% inhibition)” value ([4]; 0.3 mg/mL) of the same compound?
Answer: 37.27 ± 0.97%

Question: And the “NO scavenging (% inhibition)” value ([4]; 0.4 mg/mL)?
Answer: 42.7 ± 1.78%

Question: And the “NO scavenging (% inhibition)” value ([4]; 0.5 mg/mL)?
Answer: 47.65 ± 1.49%

Question: And the inhibition at 50 µg/mL [1, 6]?
Answer: 11.8 ± 1.01%

Question: What about the inhibition at 100 µg/mL [1, 6] of the same compound?
Answer: 19.8 ± 0.75%

Question: And the inhibition at 200 µg/mL [1, 6]?
Answer: 26.9 ± 0.44%

Question: And the inhibition at 300 µg/mL [1, 6]?
Answer: 32.7 ± 0.8%

Question: What about the inhibition at 400 µg/mL [1, 6] of the same compound?
Answer: 38.5 ± 1.16%

Question: What about the inhibition at 500 µg/mL [1, 6] of the same compound?
Answer: 43.4 ± 0.68%

Question: And the Inhibition zone diameter (Staphylococcus faecalis)?
Answer: Nil

Question: What about the “DPPH radical scavenging activity (% inhibition)” value ([5]; 0.05 mg/mL) of the same compound?
Answer: 11.5 ± 0.95%

Question: And the “DPPH radical scavenging activity (% inhibition)” value ([5]; 0.1 mg/mL)?
Answer: 17.53 ± 0.85%

Question: And the “DPPH radical scavenging activity (% inhibition)” value ([5]; 0.2 mg/mL)?
Answer: 25.33 ± 0.81%

Question: And the “DPPH radical scavenging activity (% inhibition)” value ([5]; 0.3 mg/mL)?
Answer: 31.13 ± 0.65%

Question: What about the “DPPH radical scavenging activity (% inhibition)” value ([5]; 0.4 mg/mL) of the same compound?
Answer: 38.83 ± 0.81%

Question: What about the “DPPH radical scavenging activity (% inhibition)” value ([5]; 0.5 mg/mL) of the same compound?
Answer: 44.43 ± 0.70%

Question: Which results are given for CN(C)[C@@H]1C(O)=C(C(N)=O)C(=O)[C@@]2(O)C(O)=C3C(=O)c4c(O)cccc4[C@@](C)(O)[C@H]3C[C@@H]12 [Tetracycline, reference compound]?
Answer: Inhibition zone diameter (Pseudomonas aeruginosa): 33 mm/mg sample; Inhibition zone diameter (Escherichia coli): 32 mm/mg sample; Inhibition zone diameter (Staphylococcus aureus): 32 mm/mg sample; Inhibition zone diameter (Staphylococcus faecalis): 33 mm/mg sample

Question: For O=C1O[C@H]([C@@H](O)CO)C(O)=C1O [ascorbic acid, reference compound], which “DPPH IC50” value [5] is on record?
Answer: 145 mg/L
